Entries after “also recorded” stand apart in the source; their conditions may differ.
What was measured:
[1] = tested on: phosphatidylserine (C2) binding site; assay: 3H-DCPLA-ME binding to rat brain slices with competitors, film autoradiography
Protocol: To determine the binding site of DCPLA-ME, ^3H-DCPLA-ME was incubated with rat brain slices in the absence and presence of known C1 and C2 competitors. More specifically, rat brain sections were fixed with formaldehyde, sliced, and incubated with (1) ^3H-DCPLA-ME alone; (2) ^3H-DCPLA-ME with DCPLA; (3) ^3H-DCPLA-ME with Phorbol ester; or (4) ^3H-DCPLA-ME and Bryostatin 1. After incubation, the slices were washed with a buffer made of 130 mM NaCl, 5 mM MgCl, 5 mM KCl, 1 mM EGTA, and 0.1% bovine serum albumin in 10 mM HEPES-NaOH, pH 7.4, dried, and analyzed with film-autoradiography.

[2] = tested on: SH-SY5Y neuroblastoma cells; assay: Neuronal and synaptic marker expression in cells treated with RA and Bryostatin-1 (immunofluorescence, immunoblot); type: cell-based, human
Protocol: Human SH-SY5Y neuroblastoma cells (ATCC) were cultured in 45% F12K, 45% minimum Eagle's medium, 10% fetal calf serum. […] For differentiation of SH-SY5Y cells were maintained at 2% serum and treated with 10 μM RA for 72 hr. […] Medium was changed every 3 days with fresh supplementation of RA. Rat hippocampal neurons from 18-day-old embryonic Sprague-Dawley rat brains were plated on 24-well plates coated with poly-D-lysine (Sigma-Aldrich) in neurobasal medium supplemented with B-27 containing 0.5 mM glutamine and 25 μM glutamate (Invitrogen). The neuronal cells were grown under 5% CO2 for 14 days in an incubator maintained at 37° C.
Cells were harvested in homogenizing buffer containing 10 mM Tris-Cl (pH 7.4), 1 mM PMSF (phenylmethylsulfonyl fluoride), 1 mM EGTA, 1 mM EDTA, 50 mM NaF, and 20 μM leupeptin and were lysed by sonication. […] Protein concentration was measured using the Coomassie Plus (Bradford) Protein Assay kit (Pierce, USA). Following quantification, 20 μg of protein from each sample was subjected to SDS-PAGE analysis in 4-20% gradient Tris-Glycine gel (Invitrogen, USA). […] Western Blot was imaged in the ImageQuant RT-ECL (GE Life Sciences, Piscataway, N.J.) and densitometric quantification was performed using the IMAL software (Blanchette Rockefeller Neurosciences Institute, Morgantown, W. Va.). […]

PKC-δ = PKC-δ (Homo sapiens, UniProt Q05655); assay: Activation of purified PKC isozymes, radiometric: PKC-δ; type: biochemical
Sequence of PKC-δ (Q05655 whole entry): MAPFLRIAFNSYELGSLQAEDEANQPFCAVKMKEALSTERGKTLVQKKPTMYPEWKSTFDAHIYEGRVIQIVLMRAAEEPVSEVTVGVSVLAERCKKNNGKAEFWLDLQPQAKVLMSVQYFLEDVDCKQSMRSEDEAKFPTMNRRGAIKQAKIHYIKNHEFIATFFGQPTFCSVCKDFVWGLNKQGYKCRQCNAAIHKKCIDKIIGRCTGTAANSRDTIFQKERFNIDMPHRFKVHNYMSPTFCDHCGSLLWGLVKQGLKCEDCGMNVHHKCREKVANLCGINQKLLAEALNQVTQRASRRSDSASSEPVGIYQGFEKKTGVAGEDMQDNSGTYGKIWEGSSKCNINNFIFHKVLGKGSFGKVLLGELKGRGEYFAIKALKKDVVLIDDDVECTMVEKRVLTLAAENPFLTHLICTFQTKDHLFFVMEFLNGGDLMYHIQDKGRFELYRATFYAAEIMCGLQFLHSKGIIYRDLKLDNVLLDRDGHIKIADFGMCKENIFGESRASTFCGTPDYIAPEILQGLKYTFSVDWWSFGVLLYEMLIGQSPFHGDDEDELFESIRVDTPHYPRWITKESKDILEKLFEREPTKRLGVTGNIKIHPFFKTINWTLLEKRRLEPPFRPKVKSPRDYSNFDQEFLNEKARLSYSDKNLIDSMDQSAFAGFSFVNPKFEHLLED
Protocol: To measure PKC activity, 10 μg of protein from either cytosol or membrane was incubated for 15 min at 37° C. in the presence of 10 μM histones, 4.89 mM CaCl2, 1.2 μg/μl phosphatidyl-L-serine, 0.18 μg/μl 1,2-dioctanoyl-sn-glycerol, 10 mM MgCl2, 20 mM HEPES (pH 7.4), 0.8 mM EDTA, 4 mM EGTA, 4% glycerol, 8 μg/ml aprotinin, 8 μg/ml leupeptin, 2 mM benzamidine, and 0.5 μCi of [γ-^32P]ATP. [^32P]Phosphoprotein formation was measured by adsorption onto phosphocellulose as described previously. See Nelson et al. (2009) J Biol Chem 284, 34514-34521. For measurements of activation by RA, PKC activity was measured in the absence of diacylglycerol (DAG) and phosphatidylserine, as described by Nelson et al. (2009) J Biol Chem 284, 34514-34521. PKC-δ and PKC-ε were measured in the absence of added EGTA and CaCl^2, as described by Kanno et al. (2006) J Lipid Res 47, 1146-1156. The enzyme was provided as a purified isozyme for in vitro experiments.
To measure PKC, 10 μl of cell homogenate or purified PKC isoform was incubated for 15 min at 37° C. in the presence of 10 μM histones, 4.89 mM CaCl2, 1.2 μg/μl phosphatidyl-L-serine, 0.18 μg/μl 1,2-dioctanoyl-sn-glycerol, 10 mM MgCl2, 20 mM HEPES (pH 7.4), 0.8 mM EDTA, 4 mM EGTA, 4% glycerol, 8 μg/ml aprotinin, 8 μg/ml leupeptin, and 2 mM benzamidine. [γ32P]ATP (0.5 μCi) was added and 32P-phosphoprotein formation was measured by adsorption onto phosphocellulose as described previously. See Nelson et al., J. Neurochemistry, 1995, 65: 2350-2357.
PKC activity of each compound was measured in the absence of diacylglycerol and phosphatidylserine and PKC-δ and PKC-ε were measured in the absence of added EGTA and CaCl2, as described by Kanno et al., J. Lipid Res., 2006, 47: 1146-1156. Low concentrations of Ca^2+ were needed because high Ca^2+ can interact with the PKC phosphatidylserine binding site and prevents activation. […] To determine their PKC isoform specificity, the compounds were pre-incubated with purified isoforms of PKC for five minutes and the PKC activity was measured radiometrically.

SMILES | 3H-DCPLA-ME binding, 30 nM competitor [1] | 3H-DCPLA-ME binding, 1 μM competitor [1] | increase of synaptophysin expression (immunoblot) ([2]; alone, 72 hr) | effect on PKC-δ (in words) (PKC-δ) | change in synaptophysin or PSD-95 (in words) ([2]; RA only)
CCC/C=C/C=C/C(=O)O[C@H]1/C(=C/C(=O)OC)C[C@H]2C[C@H]([C@@H](C)O)OC(=O)C[C@H](O)C[C@@H]3C[C@H](OC(C)=O)C(C)(C)C(O)(C[C@@H]4C/C(=C/C(=O)OC)C[C@H](/C=C/C(C)(C)[C@]1(O)O2)O4)O3 [Bryostatin-1] | 100% | 77% | 50% |  | 
CCCCCC1CC1CC1CC1CCCCCCCC(=O)OC (centres unmarked) [DCPLA-ME, methyl 8-(2-((2-pentylcyclopropyl)methyl)cyclopropyl)octanoate] | 64% | 37% |  | did not have a major effect; also recorded: less inhibitory effect on PKC-δ than DHA-CP6 and DCPLA | 
CC1=C(/C=C/C(C)=C/C=C/C(C)=C/C(=O)O)C(C)(C)CCC1 [RA, All-trans retinoic acid] |  |  |  | not activated | did not show much change

Reference: patent US10821079B2, “PKC activators and combinations thereof” (Cognitive Research Enterprises, Inc., priority 2011, dated 2020)
